Source: patent publication US5654267A, “Cooperative combinations of ligands contained within a matrix” (La Jolla Cancer Research Center, priority 1994, dated 1997)

What was measured:
Rat-1 cells = test: DNA synthesis ([3H]-thymidine incorporation) in EGF-stimulated Rat-1 cells; type: cell-based; settings: 40 ng/ml EGF, 20 μg/ml coating, FIG. 6
Method: (§1) Rat-1 cells were plated at 1×10^5 cells/well on 24-well plates that had been coated for 12 hours either with 20 μg/ml of vitronectin or 20 μg/ml of type I collagen. Cells were incubated for 36 hours in Dulbecco's modified Eagle's medium containing 0.1% bovine serum albumin followed by addition of buffer or 40 ng/ml EGF (Boehringer Mannheim). After 15 hours, the cells were pulse-labeled with 1 μCi/ml [^3 H]-thymidine (specific activity 6.7 Ci/mmol, DuPont NEN) for 3 hours and thymidine incorporation into DNA was determined by liquid scintillation counting.
After being serum-starved, the cells were treated with buffer only (samples 1 and 2) or with EGF (samples 3 and 4). Data points are the average of triplicate samples.

[1] = system: human foreskin fibroblasts; test: DNA synthesis ([3H]-thymidine incorporation) in PDGF-stimulated human foreskin fibroblasts; type: cell-based; settings: 40 ng/ml PDGF-BB, 20 μg/ml coating, FIG. 5 column 3 vs 4
Method: as §1, with “Human foreskin fibroblasts (Coriell) were” for “Rat-1 cells were”, “vitronectin of” for “vitronectin or”, “ng/ml PDGF-BB” for “ng/ml EGF”
Cells were serum-starved and treated with buffer only (samples 1 and 2) or with PDGF (samples 3 and 4). Data points are the average of duplicate samples.

[2] = system: FG-B cells (αv β3 integrin positive human pancreatic carcinoma cells); test: DNA synthesis ([3H]-thymidine incorporation) in insulin-stimulated FG-B cells on vitronectin or type I collagen; type: cell-based; settings: 100 mM insulin, plates coated with 10 μg/ml vitronectin or type I collagen, FIG. 4 columns 9, 10
Method: (§2) FG-B (columns 1, 2, 5, 6, 9, and 10) and FG-C cells (columns 3, 4, 7, 8, 11, and 12) were plated at 1×10^5 cells/well on 24-well plates that had been coated either with vitronectin (dark column) or type I collagen (open column). Plates were coated with 10 μg/ml of either vitronectin or type I collagen for 12 hours followed by blocking with 0.5% bovine serum albumin for 2 hours. Cells were incubated for 36 hours in DMEM containing 10% FCS (columns 1 to 4), or in DMEM containing 0.1% BSA followed by addition of buffer (columns 5 to 8) or 100 mM insulin (columns 9 to 12). FCS is used as a control because it provides maximal stimulation owing to the presence of high levels of growth factors and adhesion proteins.
(§3) After 15 hours, the cells were pulse-labeled with 1 μCi/ml [^3 H]-thymidine (specific activity 6.7 Ci/mmol, DuPont NEN) for 3 hours and thymidine incorporation into DNA was determined by trichloroacetic acid precipitation and liquid scintillation counting. Error bars indicate the standard error of triplicate determinations.

[3] = system: FG-C cells (αv β3 integrin negative human pancreatic carcinoma cells); test: DNA synthesis ([3H]-thymidine incorporation) in insulin-stimulated FG-C cells on vitronectin or type I collagen; type: cell-based; settings: lack αv β3, FIG. 4 columns 3, 4, 7, 8, 11, 12
Method: as §2, §3

[4] = system: αv β3 integrin-IRS-1 association; test: Association of IRS-1 with the vitronectin receptor (αv β3) in insulin-stimulated HIRcB cells, immunoprecipitation/immunoblot densitometry; type: cell-based, rat
Method: HIRcB cells were grown to 80% confluency in Dulbeccos's modified Eagle's medium (DMEM) containing 10% fetal calf serum (FCS) and 500 nM methotrexate, incubated in DMEM +0.1% BSA for 36 hours, and either left quiescent, or stimulated with 100 nM insulin (Sigma) for 3 minutes. Cell monolayers were rinsed with PBS, frozen with liquid nitrogen and lysed in NP-40 lysis buffer (20 mM Tris-HCl (pH 8.0), 1% NP-40, 10% glycerol, 137 mM NaCl, 1 mM CaCl2, 1 mM MgCl2, 1 mM sodium orthovanadate, 50 mM sodium fluoride, 1 mM phenylmethylsulfonylfluoride, 0.1 U/ml aprotinin, 10 μg/ml pepstatin A). HIRcB cells were immunoprecipitated with anti-αv β3 237 according to Suzuki et al., PNAS USA 83:8614 (1986), as shown in lanes 1 and 3, 237 preimmune serum in lane 2, anti-αv β3 1343 in lane 4, anti-αv β3 in lane 5, anti-α5 β1488 in lane 6 (made according to Argraves et al., J. Cell Biol. 105:1183 (1987)) and an unrelated rabbit antiserum (lane 7). Anti-αv β3 1343 was obtained from a person (Telios Pharmaceuticals, Inc.) and anti-αIIb β3 from Dr. Elisabetta Dejana (Mario Negri Institute, Milan, Italy). Three anti-α5 β1 antibodies and six unrelated polyclonal antibodies tested gave results similar to those shown in lanes 6 and 7. […] In lane 8, anti-αv β3 237 immunocomplexes from insulin-treated cells were dissociated and reprecipitated with the same antibody as follows. […]

[5] = system: HIRcB, NIH 3T3, NRK, HT29, UCLA-P3 and Panc-1 cells; test: Insulin responsiveness in a panel of αv β3 and αv β5 expressing cell lines on different substrates; type: cell-based; settings: panel of six cell lines
Source text: A correlation between αv β3 expression and increased insulin responsiveness on vitronectin was also found in a panel of three cell lines expressing αv β3 and three lines expressing only αv β5. […] All the cell lines attached equally to vitronectin. NRK, HT29, UCLA-P3 and Panc-1 attached also to laminin and collagen, and HIRcB and NIH 3T3 cells attached to laminin. The attachment to laminin and collagen was inhibited by anti-β1 antibodies (Vuori and Ruoslahti, unpublished data, and Hayman et al., J. Cell Biol. 100:1948 (1985); Hayashi et al., J. Cell biol. 110:175 (1990); Schreiner et al., Clin. Expl. Metastasis 9:163 (1991); and Cheresh et al., supra).

NRK cells = test: DNA synthesis in IGF-1-treated NRK cells on vitronectin, collagen or laminin; type: cell-based; settings: data not shown

“EGF: Epidermal growth factor (Boehringer Mannheim) (NSDSECPLSHDGYCLHDGVCMYIEALDKYACNCVVGYIGERCQYRDLKWWELR; UniProt P01133 971-1023, looked up)” was tested, and the “DNA synthesis response to EGF on vitronectin versus collagen” value (Rat-1 cells) was “same response”.
In the case of “PDGF: platelet derived growth factor, PDGF-BB (Boehringer Mannheim)”, the “higher DNA synthesis in response to PDGF when plated on vitronectin than on collagen” value [1] is reported as “about 2.3 fold”.
insulin was tested, and the “higher DNA synthesis in response to insulin when plated on vitronectin than on collagen” value [2] was “about 2.5 fold”, the “difference in the DNA synthesis response on vitronectin and collagen” value [3] was “no difference” and the “time of insulin stimulation to maximal IRS-1-vitronectin receptor association” value ([4]; HIRcB cells) was 3 min. The “IRS-1 complexed with the vitronectin receptor” value ([4]; insulin-stimulated HIRcB cells, share of IRS-1 of total cell lysate) was “Five to eight” and the “effect of attachment to laminin on insulin responsiveness” value [5] was “did not increase”.
For “IGF-1: insulin-like growth factor (IGF-1), signals through IRS-1”, the “higher DNA synthesis in response to IGF-1 when plated on vitronectin than on collagen or laminin” value (NRK cells) was “about 2.3 fold”.
